Laboratory results reported in patent publication US20220160688A1, “INHIBITION OF NAMPT AND/OR SARM1 FOR THE TREATMENT OF AXONAL DEGRADATION” (THE JOHNS HOPKINS UNIVERSITY, priority 2019, published 2022).
“Also recorded” adds a separate entry of the source.

Key:
[1] = test system: Mouse dorsal root ganglion (DRG) cells; assay: Microfluidic based axon degeneration assay (axotomy, degeneration index); assay type: cell-based; conditions: for efficacy against Wallerian degeneration compared with FK866: tested at different concentrations; for Optimized Concentration used (from dose response curves): tested 2 hours following axotomy
Method: A poly-dimethylsiloxane (PDMS)-based microfluidic device described by Hosmane and colleagues was used for these experiments (see, FIG. 16) (see, Hosmane, et al., Lab Chip 2010, 10, 741-747). This device provisions a perikaryal compartment where nerve cells are first placed and a juxtaposed array of 200 microchannels towards which axons grow and through which they traverse to reach a third axonal compartment. Mouse dorsal root ganglion (DRG) cells were prepared from E12-13 embryos and plated to the perikaryal compartment. After 6-7 days of culture at 37° C. and 5% CO2, axons were cut using a razor blade with vehicle or reagents. Images of the axonal compartment were taken at various time intervals at 20× magnification. Images were then analyzed for degeneration index (DI) which indicates percentage of fragmented axons over total axonal area, and drug-treated axons were compared to vehicle treated or uninjured axons. Live time-lapse images were taken as needed.

[2] = test system: IA-injured Thy1-eYFP-H mice; assay: CLARITY-based counts of axonal lesions in the CST after impact acceleration (IA) injury; assay type: in vivo, mouse; conditions: FK866 10 mg/kg i.p. immediately after injury then every 6 h, vs vehicle
Text: IA injury was produced under gas anesthesia with 2% isoflurane. Under aseptic conditions and with the subject in a small-animal stereotactic frame, a 5-mm-diameter steel disc was glued on the exposed cranium between bregma and lambda to prevent skull fracture. The mouse was then placed prone on a foam bed under a hollow Plexiglas tube and secured with tape as described previously (see, Xu L, (2016) Exp Neurol 275:436-449). Injury was produced by dropping a brass weight from a height of 1 m through the Plexiglas tube onto the disk. In all cases except the impact dose-response study outlined below, that weight was 60 g. The foam bed was pulled immediately at the rebound of the weight off the metal disc, such as to prevent a second impact. The metal disc was then removed, scalp incision was closed with surgical staples, and the animal returned to cage for full recovery. Subjects with skull fractures confirmed with a surgical microscope were excluded from the study. […]
For 3D visualization and quantitative analysis of axonal injury of cleared brainstems, we used the software suite Imaris (Bitplane). […] For the detection and quantification of axonal swellings based on YFP and APP, the spot detection function for the whole CST volume from the pons to the pyramidal decussation or cervical spinal cord was used. […]

[3] = test system: mice injured with impact-acceleration; assay: Pellet-reaching task after impact-acceleration traumatic brain injury; assay type: in vivo, mouse; conditions: drug administered continuously for 14 days post injury (osmotic pump); vs vehicle-treated mice
Method: Experiments were conducted to characterize the effects of SARM1 deletion or pharmacological SARM1 blockade on corticospinal-dependent motor deficits after traumatic brain injury (impact-acceleration). This was tested on the pellet-reaching task, i.e. the golden-standard to assess skilled function of the forelimbs in rodents relevant to a similar task used to assess fine motor function in humans. Specifically, experiments trained mice for 2 weeks before TBI in order to reach peak performance in the task. At that point the trained mice were injured with impact-acceleration. Experiments next measured their performance every day for two weeks post injury and comparisons were made between groups of mice administered FK866 and vehicle treated mice (control group).
Mice were placed under food restriction or 2 days to lose approximately 10% of their body weight. Following this, the shaping phase of the experiment was initiated: two mice were placed in the training chamber comprised of a clear Plexiglas chamber with ample food for 20 minutes for the first day, whereas one mouse was placed in the same chamber on day 2. The training chamber has a single slit through which the mouse can retrieve a pellet of food placed on the outside right in front of the slit. […] Retrieval attempts were recorded and characterized as successful only if a mouse retrieved the pellet and put it in its mouth. […]

## N#CN=C(NCCCCCCOc1ccc(Cl)cc1)Nc1ccncc1 [CHS-828]
[1]; axotomized DRG axons
  efficacy against Wallerian degeneration compared with FK866: comparably strong efficacy
[1]
  Optimized Concentration used (from dose response curves): 250 nM

## O=C(/C=C/c1cccnc1)NCCCCC1CCN(C(=O)c2ccccc2)CC1 [FK866]
[1]; FK866 given at 0, 2, 4, 6 hours following injury
  optimal therapeutic window of treatment onset: within two to six hours of injury
[1]; axotomized DRG axons, treatment after the onset of visible fragmentation
  delay of further fragmentation: still effective in delaying further fragmentation
[1]; axotomized DRG axons, treatment at 2 hours post-injury
  protection against Wallerian degeneration (degeneration index): Maximum protection against WD
[1]
  Optimized Concentration used (from dose response curves): 100 nM
[2]; 24 h after injury
  number (density) of axonal lesions per anatomical segment (CST×RST, pyramidal decussation, cervical cord): significantly lower number of axonal lesions
[2]; counted 24 h after injury, 10 mg/kg
  total number of axonal lesions in the CST from the pons to cervical spinal cord: significantly lower number of axonal lesions; also recorded: smaller number of axonal lesions
[3]
  skilled motor function (pellet-reaching performance): significant preservation of skilled motor function; also recorded: maintain their pellet-reaching skill

## O=C(CCCCCCCn1cc(-c2cccnc2)nn1)Nc1ccccc1-c1ccccc1 [GPP78]
[1]; axotomized DRG axons
  efficacy against Wallerian degeneration compared with FK866: comparably strong efficacy
[1]
  Optimized Concentration used (from dose response curves): 1000 nM

## NC(=O)c1ccc[n+]([C@@H]2O[C@H](CO)[C@@H](O)[C@H]2O)c1 [NAR, nicotinamide riboside]
[1]; FK866 and/or NAR at the time of injury
  effect of added NAR on the protective effect of FK866: further augmented the protective effect of FK866

## NC(=O)c1ccc[n+]([C@@H]2O[C@H](COP(=O)([O-])O)[C@@H](O)[C@H]2O)c1 [NMN, nicotinamide mononucleotide]
[1]; FK866 at time of injury, NMN added 0, 2, 4 hours post axotomy
  effect of added NMN on the protection by NAMPT inhibition (FK866): reversed

## CC(C)(C)c1ccc(S(=O)(=O)NCc2ccc(C(=O)Nc3cccnc3)cc2)cc1 [STF31]
[1]; axotomized DRG axons
  efficacy against Wallerian degeneration compared with FK866: comparably strong efficacy
[1]
  Optimized Concentration used (from dose response curves): 2000 nM

## Cc1ccc(S(=O)(=O)Cc2nc(-c3ccc(C(=O)NCc4cccnc4)cc3)oc2C)cc1 [STF118804]
[1]; axotomized DRG axons
  efficacy against Wallerian degeneration compared with FK866: comparably strong efficacy
[1]
  Optimized Concentration used (from dose response curves): 250 nM
